In ChEMBL document CHEMBL1201862, “PubChem BioAssay data set” (2004):
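Where inhibition never reached the appropriate level, the endpoint shown equals the highest concentration tested. Otherwise, values were interpolated linearly from a five-concentration, 48-hour dose response in 96-well plates. GI50 = concentration required for 50% inhibition of growth.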 Activity calls are given as the source filed them. Cut-off read from the data, not from the text of the source: active = GI50 up to about 1.1 µM and inactive = higher.

How the values were obtained:
Test in all cases: NCI anticancer screen, dose series, 48 h
U-251 = test system: U-251
MCF7 = test system: MCF7
HOP-92 = test system: HOP-92
MDA-MB-435 = test system: MDA-MB-435
OVCAR-8 = test system: OVCAR-8
HL-60 = test system: HL-60
SF-295 = test system: SF-295
SNB-19 = test system: SNB-19
HOP-62 = test system: HOP-62
HT-29 = test system: HT-29
SF-268 = test system: SF-268
T47D = test system: T47D
OVCAR-5 = test system: OVCAR-5
MOLT-4 = test system: MOLT-4
NCI-H23 = test system: NCI-H23
SW-620 = test system: SW-620
Malme-3M = test system: Malme-3M
A498 = test system: A498
A549 = test system: A549
DU-145 = test system: DU-145

Compound | GI50 (U-251) | GI50 (MCF7) | GI50 (HOP-92) | GI50 (MDA-MB-435) | GI50 (OVCAR-8) | GI50 (HL-60) | GI50 (SF-295) | GI50 (SNB-19) | GI50 (HOP-62) | GI50 (HT-29) | GI50 (SF-268) | GI50 (T47D) | GI50 (OVCAR-5) | GI50 (MOLT-4) | GI50 (NCI-H23) | GI50 (SW-620) | GI50 (Malme-3M) | GI50 (A498) | GI50 (A549) | GI50 (DU-145)
CC(C)Oc1cccc(N2C(Nc3ccccc3)=Nc3ccncc3S2(=O)=O)c1 | 7.67 µM (inactive) | 17.6 µM (inactive) | 16.2 µM (inactive) | 11.8 µM (inactive) | 18.2 µM (inactive) | 0.41 µM (active) | 23.1 µM (inactive) | 34.8 µM (inactive) | 32.7 µM (inactive) | 12.2 µM (inactive) | 38.9 µM (inactive) | 13.8 µM (inactive) | 48.1 µM (inactive) | > 100 µM (inactive) | 32.9 µM (inactive) | 17.3 µM (inactive) | 23.2 µM (inactive) | 25.7 µM (inactive) | 20.4 µM (inactive) | 42.4 µM (inactive)
CC(=O)[C@@]1(O)CC[C@H]2[C@@H]3C[C@H](C)C4=CC(=O)CC[C@]4(C)[C@H]3[C@@H](O)C[C@@]21C | > 100 µM (inactive) | > 100 µM (inactive) | > 100 µM (inactive) | > 100 µM (inactive) | > 100 µM (inactive) | > 100 µM (inactive) | > 100 µM (inactive) | > 100 µM (inactive) | > 100 µM (inactive) | > 100 µM (inactive) | > 100 µM (inactive) | 94.2 µM (inactive) | > 100 µM (inactive) | 46 µM (inactive) | > 100 µM (inactive) | > 100 µM (inactive) | > 100 µM (inactive) | > 100 µM (inactive) | 60.1 µM (inactive) | > 100 µM (inactive)
COC(=O)C1(Cc2ccccc2)Cc2c(C)ccc(C)c2C1=O (stereo not given) | 30 µM (inactive) | 28.7 µM (inactive) | 20.1 µM (inactive) | 17.4 µM (inactive) | 14.4 µM (inactive) | 20.2 µM (inactive) | 31.8 µM (inactive) | 48.4 µM (inactive) | 56.9 µM (inactive) | 19.8 µM (inactive) | 39.6 µM (inactive) | 16.7 µM (inactive) | 69.5 µM (inactive) | 18.7 µM (inactive) | 24.2 µM (inactive) | 40.6 µM (inactive) | 21.4 µM (inactive) | 46.8 µM (inactive) | 11.1 µM (inactive) | 49.2 µM (inactive)
COC(=O)Cc1cccc2c1CCC2=O | > 100 µM (inactive) | > 100 µM (inactive) | > 100 µM (inactive) | > 100 µM (inactive) | > 100 µM (inactive) | > 100 µM (inactive) | > 100 µM (inactive) | > 100 µM (inactive) | > 100 µM (inactive) | > 100 µM (inactive) | > 100 µM (inactive) | > 100 µM (inactive) | > 100 µM (inactive) | > 100 µM (inactive) | > 100 µM (inactive) | > 100 µM (inactive) | > 100 µM (inactive) | > 100 µM (inactive) | > 100 µM (inactive) | > 100 µM (inactive)
CCOC(=O)NC(NC(C)CC)(C(F)(F)F)C(F)(F)F (stereo not given) | 81.5 µM (inactive) | > 100 µM (inactive) | > 100 µM (inactive) | > 100 µM (inactive) | > 100 µM (inactive) | > 100 µM (inactive) | > 100 µM (inactive) | > 100 µM (inactive) | > 100 µM (inactive) | > 100 µM (inactive) | > 100 µM (inactive) | > 100 µM (inactive) | > 100 µM (inactive) | > 100 µM (inactive) | > 100 µM (inactive) | 42.3 µM (inactive) | > 100 µM (inactive) | > 100 µM (inactive) | > 100 µM (inactive) | > 100 µM (inactive)
Oc1ccc(/C=C/c2cc(O)cc3c2C(c2cc(O)cc(O)c2)C(c2ccc(O)c(O)c2)O3)cc1 (stereo not given) | 31 µM (inactive) | 33.3 µM (inactive) | 37.1 µM (inactive) | 32.6 µM (inactive) | 21.6 µM (inactive) | 27.1 µM (inactive) | 36.6 µM (inactive) | 18.6 µM (inactive) | 35.9 µM (inactive) | 17.6 µM (inactive) | 30.6 µM (inactive) | 13.1 µM (inactive) | 35.6 µM (inactive) | 11.6 µM (inactive) | 18.8 µM (inactive) | 39.2 µM (inactive) | 26.7 µM (inactive) | 33.5 µM (inactive) | 45.6 µM (inactive) | 35.1 µM (inactive)
